# Measurements: publication PMC7747594, “Protease-activated receptor-2 ligands reveal orthosteric and allosteric mechanisms of receptor inhibition” (Communications Biology, 2020)
# Values joined by “and” are separate entries in the source; they are usually repeats but may differ in a detail not shown here. Equal values may be shown once. “Also recorded” adds a separate entry of the source. Read-outs that look alike come from different tables or passages of the source.
# How the values were obtained:
# hPAR2 [1] = target: T1, hPAR2 (Homo sapiens, UniProt P55085); assay: IP1 HTRF assay, inhibition of SLIGRL-NH2 in 1321N1-hPAR2 cells; assay type: cell-based
# T1 sequence (P55085 26-397): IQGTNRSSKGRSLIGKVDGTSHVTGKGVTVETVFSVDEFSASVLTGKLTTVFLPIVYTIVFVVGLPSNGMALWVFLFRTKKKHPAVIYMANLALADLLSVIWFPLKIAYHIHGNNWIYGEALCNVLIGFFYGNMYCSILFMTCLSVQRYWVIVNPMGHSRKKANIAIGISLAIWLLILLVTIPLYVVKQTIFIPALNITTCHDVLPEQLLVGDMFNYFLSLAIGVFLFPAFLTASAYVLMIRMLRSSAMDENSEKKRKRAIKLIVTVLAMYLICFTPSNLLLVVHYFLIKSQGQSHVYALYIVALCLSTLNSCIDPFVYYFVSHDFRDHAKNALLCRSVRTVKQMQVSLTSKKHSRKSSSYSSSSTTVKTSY
# Experimental: Inhibition of PAR2-induced inositol-1-phosphate (IP1) production was measured in 1321N1-hPAR2 cells using IP-One Gq HTRF assay kit (Cisbio). […] Next, EC80 of SLIGRL-NH2 (70 µM) supplemented with 50 mM LiCl was added and incubated for 60 min at 37 °C. Detection of IP1 production was performed according to the manufacturer’s protocol and HTRF was measured using PHERAstar (BMG LabTech). Data were normalised to [IP1] using a standard curve.
# (§1) Binding data were analysed using the One site – Fit Ki model in GraphPad Prism 8 (GraphPad Software) to determine binding affinity. Pharmacology in vitro potency data was analysed with a 4-parameter logistic fit using the equation y = Bottom + (Top − Bottom)/[…] where y is the response, x is the 10-logarithm of the drug concentration, Bottom is no response and Top is full response in GraphPad Prism 8 or Genedata Screener (Genedata). pEC50 and pIC50 data are presented as mean ± standard error of the mean (s.e.m.) derived from the number of independent experiments stated. Schild slope analysis was calculated using Graphpad Prism 8 Gaddum/Schild EC50 global fitting (shared model parameters between all data sets) competitive model. […] Schild slope quantifies the shifts in agonist response in the presence of antagonist, a Schild slope of 1 indicates the antagonist is competitive and extra-sum-of-squares F-test (p < 0.05) was used to compare the calculated Schild slope against a hypothetical Schild slope of 1. […] The relative activity was calculated using (EmaxEC50’)/(Emax’EC50) with the Hill slope help constant at 1. EC50’ and Emax’ denote the EC50 and Emax in the absence of allosteric modulator, while EC50 and Emax denote those measured in the presence of allosteric modulator. When the Hill slope = 1, the relative activity plot approaches an asymptote corresponding to the estimate of the γ value.
# hPAR2 [2] = target: T1, hPAR2; assay: Ca^2+ flux assay (FLIPR), inhibition of SLIGRL-NH2 activation in 1321N1-hPAR2 cells; assay type: cell-based
# Experimental: (§2) Cells were loaded with Fluo-8 NW calcium dye (AAT Bioquest) for 30 min at 37 °C before compounds in Hank’s balanced salt solution (HBSS, ThermoFisher Scientific) with 20 mM HEPES (ThermoFisher Scientific), 0.1% bovine serum albumin (BSA, Sigma) and 0.5% DMSO were added and simultaneously evaluated for changes in intracellular [Ca^2+] using FLIPR TETRA (Molecular Devices) to detect agonism. For each concentration, the difference between the maximum peak Ca^2+ response and baseline response is reported. […] Antagonism experiments were also carried out on 1321N1-PAR2[WT], 1321N1-PAR2[F154A], and 1321N1-PAR2[G157C] as described. Experiments with trypsin in 1321N1-hPAR2 cells were performed in the presence of 1 µM Vorapaxar (Chemtronica) to remove any interference of PAR1 activity. […] Antagonism experiments for CHO-hPAR2 and HT-29 cells were performed in 96-well plates at 30,000 cells/well. Cells were loaded with Fluo-3 AM calcium dye (Sigma-Aldrich) for 60 min at 37 °C in HBSS with 1% FBS, 0.2% pluronic acid, 20 mM HEPES and 2.5 mM probenecid prior to the addition of antagonist. The antagonist was pre-incubated for 60 min at 37 °C followed by the addition of bovine trypsin (30 nM) at EC80. Intracellular [Ca^2+] flux was measured using FLIPR TETRA (Molecular Devices) and the difference between the maximum peak Ca^2+ response and baseline response is reported.
# as §1
# hPAR2 [3] = target: T1, hPAR2; assay: Europium-tagged competition binding assay against Eu-tagged-2f-LIGRLO(dtpa)-NH2 on CHO-hPAR2 cells; design: expressed in transfected cells; host or cells: Flp-In CHO
# Experimental: CHO-hPAR2 cells were seeded overnight in 384-well plate at 2.5 × 10^4 cells/well and blocked with 2% BSA for 60 min. […] Cells were washed 3× with PBS supplemented with 20 µM EDTA, 0.01% Tween and 0.2% BSA followed by addition of DELFIA Enhancement Solution (Perkin Elmer) for 90 min. Time-resolved fluorescence was measured with PHERAstar FS reader (BMG Labtech).
# as §1
# rat PAR2 = target: T2, rat PAR2 (Rattus norvegicus, UniProt Q63645); assay: Ca^2+ flux assay, inhibition of SLIGRL-NH2 activation in rat KNRK cells; assay type: cell-based
# T2 construct: a rat KNRK cell line with endogenous expression of rat PAR2; host or cells: rat KNRK cells
# T2 sequence (Q63645 26-397): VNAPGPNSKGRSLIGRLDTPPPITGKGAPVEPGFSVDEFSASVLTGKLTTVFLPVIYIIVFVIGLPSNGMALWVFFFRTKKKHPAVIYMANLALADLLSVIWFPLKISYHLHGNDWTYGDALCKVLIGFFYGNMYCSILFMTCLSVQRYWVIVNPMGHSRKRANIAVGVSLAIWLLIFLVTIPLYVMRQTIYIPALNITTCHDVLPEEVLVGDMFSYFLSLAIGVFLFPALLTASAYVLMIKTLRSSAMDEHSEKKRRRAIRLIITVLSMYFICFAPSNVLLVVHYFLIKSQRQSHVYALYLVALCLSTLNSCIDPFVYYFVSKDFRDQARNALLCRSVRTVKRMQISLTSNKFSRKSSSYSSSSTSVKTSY
# hPAR2 [4] = target: T1, hPAR2; assay: Ca^2+ flux assay, agonist mode, 1321N1-hPAR2 cells; assay type: cell-based; details: for Ca^2+ mobilisation tested as agonist, Fig 1c source data: log[compound], individual data points
# Experimental: as §2, §1
smiles,measurement,setting,value
CCCc1cc(F)ccc1C(O)c1ncc[nH]1 (stereo not drawn) [AZ8838],IC50,hPAR2 [1],1.45 µM
same,remaining activity at 3.163 µM,"hPAR2 [1]; read-out: SLIGRL-NH2 IP1 formation, antagonist response, Fig 1d source data, log[compound], M -5.4999, individual data points",40.7%
same,remaining activity at 1 µM,"hPAR2 [1]; read-out: SLIGRL-NH2 IP1 formation, antagonist response, Fig 1d source data, log[compound], M -6, individual data points",54.4%
same,remaining activity at 0.3164 µM,"hPAR2 [1]; read-out: SLIGRL-NH2 IP1 formation, antagonist response, Fig 1d source data, log[compound], M -6.49976, individual data points",79.9%
same,remaining activity at 0.03164 µM,"hPAR2 [1]; read-out: SLIGRL-NH2 IP1 formation, antagonist response, Fig 1d source data, log[compound], M -7.49976, individual data points",108%
same,IC50,hPAR2 [2],2 µM
same,remaining activity at 1.318 µM,"hPAR2 [2]; read-out: SLIGRL-NH2 Ca^2+ mobilisation, antagonist response, Fig 1c source data, log[compound], M -5.88008, individual data points",77.3%
same,remaining activity at 0.4168 µM,"hPAR2 [2]; read-out: SLIGRL-NH2 Ca^2+ mobilisation, antagonist response, Fig 1c source data, log[compound], M -6.38007, individual data points",83%
same,remaining activity at 0.1318 µM,"hPAR2 [2]; read-out: SLIGRL-NH2 Ca^2+ mobilisation, antagonist response, Fig 1c source data, log[compound], M -6.88008, individual data points",101%
same,remaining activity at 0.04169 µM,"hPAR2 [2]; read-out: SLIGRL-NH2 Ca^2+ mobilisation, antagonist response, Fig 1c source data, log[compound], M -7.37997, individual data points",90.3%
same,remaining activity at 0.01318 µM,"hPAR2 [2]; read-out: SLIGRL-NH2 Ca^2+ mobilisation, antagonist response, Fig 1c source data, log[compound], M -7.88008, individual data points",91.2%
same,remaining activity at 0.00417 µM,"hPAR2 [2]; read-out: SLIGRL-NH2 Ca^2+ mobilisation, antagonist response, Fig 1c source data, log[compound], M -8.37986, individual data points",97.2%
same,remaining activity at 0.001319 µM,"hPAR2 [2]; read-out: SLIGRL-NH2 Ca^2+ mobilisation, antagonist response, Fig 1c source data, log[compound], M -8.87976, individual data points",102%
same,Ki,"hPAR2 [3]; against Eu-tagged-2f-LIGRLO(dtpa)-NH2, CHO-hPAR2 cells, mean ± s.e.m., read-out: Competition Binding (hPAR2) pKi (converted)",6.31 µM
same,Ki,"hPAR2 [3]; earlier manuscript version quoted by reviewer, read-out: Ki",3.6 µM
same,IC50,rat PAR2,5.01 µM
same,"Ca^2+ mobilisation tested as agonist, Fig 1c source data",hPAR2 [4]; M -4.38018,2.862 and -0.09582 and -3.103 and -1.512 and -1.8855
same,"Ca^2+ mobilisation tested as agonist, Fig 1c source data",hPAR2 [4]; M -4.88008,-0.3654 and 0.4152 and -1.57 and -6.425 and -2.983
same,"Ca^2+ mobilisation tested as agonist, Fig 1c source data",hPAR2 [4]; M -5.38018,1.583 and 0.2874 and -4.491 and -0.4535 and -1.063
same,"Ca^2+ mobilisation tested as agonist, Fig 1c source data",hPAR2 [4]; M -5.88008,3.532 and 5.014 and 4.491 and 1.663 and -0.1714
same,"Ca^2+ mobilisation tested as agonist, Fig 1c source data",hPAR2 [4]; M -6.38007,1.035 and 1.437 and 3.98 and 0.4535 and 1.817
same,"Ca^2+ mobilisation tested as agonist, Fig 1c source data",hPAR2 [4]; M -6.88008,1.705 and 1.246 and -5.002 and 2.343 and 3.3939
same,"Ca^2+ mobilisation tested as agonist, Fig 1c source data",hPAR2 [4]; M -7.37997,2.862 and -1.309 and -0.8397 and 2.948 and 1.406
same,"Ca^2+ mobilisation tested as agonist, Fig 1c source data",hPAR2 [4]; M -7.88008,2.375 and -2.268 and 1.1318 and 4.308 and 1.268
same,"Ca^2+ mobilisation tested as agonist, Fig 1c source data",hPAR2 [4]; M -8.37986,-1.218 and 0.543 and 2.665 and 1.436 and 3.188
same,"Ca^2+ mobilisation tested as agonist, Fig 1c source data",hPAR2 [4]; M -8.87976,4.6285 and 0.6707 and 4.491 and -8.012 and -2.845
same,agonist activity (tested as agonists),hPAR2 [4]; Ca^2+ assay and other signalling assays,no effect; also recorded: no agonist activity
